ChEMBL document CHEMBL4627312, “Anilinopyrazines as potential mitochondrial uncouplers” (Bioorg Med Chem Lett, 2020)
Calls of active or inactive are those of the source. No cut-off for these calls is given here.

Experiments:
L6 [1] = assay: Induction of mitochondrial uncoupling in rat L6 cells assessed as oxygen consumption rate at 0.01 to 50 uM measured after 45 to 90 mins by seahorse XFe96 analyser based assay; conditions: Mitochondria
L6 [2] = assay: Induction of mitochondrial uncoupling in rat L6 cells assessed as oxygen consumption rate measured after 45 to 90 mins by seahorse XFe96 analyser based assay relative to control; conditions: Mitochondria
[3] = Induction of mitochondrial uncoupling in rat L6 cells assessed as oxygen consumption rate measured after 45 to 90 mins by seahorse XFe96 analyser based assay; type: mitochondria, Mitochondria

COc1ccc(Nc2nc(Nc3ccc(OC)cc3)nc(Nc3ccc(OC)cc3)n2)cc1
Activity (L6 [1]): inactive | Emax (L6 [2]): 104%

FC(F)(F)Oc1ccc(Nc2nccnc2Nc2ccc(OC(F)(F)F)cc2)cc1
Emax (L6 [2]): 258% | EC50 [3]: 5.9 µM

COc1ccccc1Nc1nc(Nc2ccccc2OC)nc(Nc2ccccc2OC)n1
Activity (L6 [1]): inactive | Emax (L6 [2]): 103%

FC(F)(F)c1cccc(Nc2nc(Nc3cccc(C(F)(F)F)c3)nc(Nc3cccc(C(F)(F)F)c3)n2)c1
Activity (L6 [1]): inactive | Emax (L6 [2]): 103%

Fc1ccc(C(F)(F)F)cc1Nc1nccnc1Nc1cc(C(F)(F)F)ccc1F
Emax (L6 [2]): 100%

FC(F)(F)Oc1cccc(Nc2nccnc2Nc2cccc(OC(F)(F)F)c2)c1
Emax (L6 [2]): 343% | EC50 [3]: 12 µM

FC(F)(F)Oc1ccc(Nc2cnc(Nc3ccc(OC(F)(F)F)cc3)cn2)cc1
Activity (L6 [1]): inactive | Emax (L6 [2]): 102%

FC(F)(F)Oc1cccc(Nc2cncc(Nc3cccc(OC(F)(F)F)c3)n2)c1
Activity (L6 [1]): inactive | Emax (L6 [2]): 105%

Fc1cccc(Nc2nccnc2Nc2cccc(F)c2F)c1F
Activity (L6 [1]): inactive | Emax (L6 [2]): 108%

Fc1cc(C(F)(F)F)ccc1Nc1nccnc1Nc1ccc(C(F)(F)F)cc1F
Emax (L6 [2]): 164% | EC50 [3]: 8.5 µM

FC(F)(F)c1cc(Nc2nccnc2Nc2cc(C(F)(F)F)cc(C(F)(F)F)c2)cc(C(F)(F)F)c1
Emax (L6 [2]): 148% | EC50 [3]: 17 µM

FC(F)(F)c1ccc(Nc2nc(Nc3ccc(C(F)(F)F)cc3)nc(Nc3ccc(C(F)(F)F)cc3)n2)cc1
Activity (L6 [1]): inactive | Emax (L6 [2]): 100%

FC(F)(F)Oc1cccc(Nc2cnc(Nc3cccc(OC(F)(F)F)c3)cn2)c1
Activity (L6 [1]): inactive | Emax (L6 [2]): 101%

Fc1ccccc1Nc1nc(Nc2ccccc2F)nc(Nc2ccccc2F)n1
Activity (L6 [1]): inactive | Emax (L6 [2]): 102%

Fc1ccc(Nc2nccnc2Nc2ccc(F)cc2)cc1
Activity (L6 [1]): inactive | Emax (L6 [2]): 101%

COc1ccccc1Nc1nccnc1Nc1ccccc1OC
Emax (L6 [2]): 102%

FC(F)(F)c1cccc(Nc2cnc(Nc3cccc(C(F)(F)F)c3)cn2)c1
Activity (L6 [1]): inactive | Emax (L6 [2]): 140%

FC(F)(F)c1cc(Nc2cncc(Nc3cc(C(F)(F)F)cc(C(F)(F)F)c3)n2)cc(C(F)(F)F)c1
Activity (L6 [1]): inactive | Emax (L6 [2]): 105%

Fc1ccc(Nc2nccnc2Nc2ccc(F)cc2F)c(F)c1
Activity (L6 [1]): inactive | Emax (L6 [2]): 109%

FC(F)(F)Oc1ccccc1Nc1nccnc1Nc1ccccc1OC(F)(F)F
Activity (L6 [1]): inactive | Emax (L6 [2]): 114%

Fc1cccc(Nc2nccnc2Nc2cccc(F)c2)c1
Activity (L6 [1]): inactive | Emax (L6 [2]): 106%

FC(F)(F)c1ccc(Nc2cnc(Nc3ccc(C(F)(F)F)cc3)cn2)cc1
Activity (L6 [1]): inactive | Emax (L6 [2]): 107%

COc1cccc(Nc2nc(Nc3cccc(OC)c3)nc(Nc3cccc(OC)c3)n2)c1
Activity (L6 [1]): inactive | Emax (L6 [2]): 103%

FC(F)(F)c1ccccc1Nc1nccnc1Nc1ccccc1C(F)(F)F
Emax (L6 [2]): 104%

FC(F)(F)Oc1ccc(Nc2cncc(Nc3ccc(OC(F)(F)F)cc3)n2)cc1
Activity (L6 [1]): inactive | Emax (L6 [2]): 107%

FC(F)(F)c1ccc(Nc2cncc(Nc3ccc(C(F)(F)F)cc3)n2)cc1
Activity (L6 [1]): inactive | Emax (L6 [2]): 103%

FC(F)(F)c1ccc(Nc2nccnc2Nc2ccc(C(F)(F)F)cc2)cc1
Emax (L6 [2]): 260% | EC50 [3]: 2.5 µM

COc1cccc(Nc2nccnc2Nc2cccc(OC)c2)c1
Emax (L6 [2]): 101%

FC(F)(F)c1cccc(Nc2nccnc2Nc2cccc(C(F)(F)F)c2)c1
Emax (L6 [2]): 181% | EC50 [3]: 3 µM
